Reference: paper PMC11494886, “Discovery and design of molecular glue enhancers of CDK12–DDB1 interactions for targeted degradation of cyclin K” (RSC Chemical Biology, 2024)

Columns and labels:
HEK-293T cells = experiment: CellTiter-Glo viability assay, WT HEK-293T; type: cell-based; settings: Homo sapiens, 72 hours, read-out: EC50 cell viability
Excerpt: MDA-MB-231 (human triple-negative breast cancer cells) and HEK293T (human embryonic kidney cells) were purchased from the American type culture collection (ATCC) and maintained in Dulbecco's modified Eagle's medium (DMEM) (Gibco) supplemented with 10% (v/v) heat-inactivated fetal bovine serum (FBS) (Gibco) and penicillin/streptomycin (100 U mL^−1 each). HiBiT-CCNK KI A549 cells, purchased from Promega, were maintained in F12 medium supplemented with 10% (v/v) heat-inactivated fetal bovine serum (FBS) (Gibco) and penicillin/streptomycin (100 U mL^−1 each). DDB1-knockdown MDA-MB-231 and DDB1-knockdown HEK293T cell lines were maintained in the same media formulation as their corresponding wild-type cell lines. All cell lines were cultured at 37 °C in an incubator with CO2 levels maintained at 5%.
(§1) Cell viability was measured by Cell Titer Glo assay kit (Promega, USA). EC50 was determined from the nonlinear regression and a four-parameter algorithm on the GraphPad Prism software.

HEK-293TDDB1-shRNA cells = experiment: CellTiter-Glo viability assay, HEK-293T DDB1-shRNA; type: cell-based, human; settings: 72 hours; for EC50: Homo sapiens, HEK-293T DDB1 shRNA, CellTiter-Glo, read-out: EC50 cell viability
Excerpt: For stable genetic knock-down of DDB1 in cells, predesigned and validated TRC2-pLKO-puro shRNA plasmids for DDB1 (TRCN0000082855 and TRCN0000082856), and a non-targeting shRNA plasmid (SHC001) were obtained from Millipore Sigma. All plasmids were purified using the Qiagen Maxiprep kit (Qiagen). FuGENE HD 6 transfection reagent (Promega) was used for transfection of plasmids and lentiviral gene/shRNA constructs. Mission lentiviral packaging mix (Millipore Sigma) was used to package lentiviral plasmids into lentiviral particles in HEK293T cells, as per manufacturer's protocols. The resultant virus was concentrated using Vivaspin 20 centrifugal concentrators (Sartorius). MDA-MB-231 and HEK293T cells were transduced with lentivirus. Stable knocked down DDB1 (shDDB1-231 and shDDB1-HEK293T) cells were generated after selection with the antibiotic puromycin, and genetic knockdown was confirmed by western blotting.
as §1

Cdk12/CycK and DDB1ΔB = molecular target: T1, Cdk12/CycK and DDB1ΔB (Homo sapiens, UniProt Q16531+Q9NYV4, DEL396-705); experiment: Thermal stability (nanoDSF) of mixture of DDB1ΔB and Cdk12/CycK; type: binding; settings: Cdk12/CycK and DDB1ΔB 5 μM each, 3-fold molar excess of compound
T1 construct: the Cdk12 (714–1063)/CycK (1–267) complex and the DDB1ΔB protein; made in house; host or cells: Sf9 insect cells (MultiBacTurbo)
Excerpt: Synthetic genes, codon optimized for expression in Sf9 insect cells, comprising the kinase domain of human Cdk12 (residues 714–1063, UniProt accession number Q9NYV4) and cyclin box domains of human cyclin K (residues 1–267, UniProt accession number O75909) were purchased from GeneArt. The coding sequence of Cdk12 was integrated into the pACEBac1 acceptor vector, while CycK was introduced into pIDK donor vector. Both target vectors underwent modification, wherein a GST-affinity tag followed by a tobacco etch virus (TEV) protease cleavage site was introduced upstream of the protein coding sequence. A pIDC donor vector was employed to insert full-length CDK-activating kinase CAK1 (UniProt accession number P43568) from S. cerevisiae devoid of any affinity tag. […]
The human wild-type BPB domain deletion version (ΔBPB: amino acids 396–705 deleted) of DNA damage-binding protein 1 (DDB1) (residues 1–1140 Δ396–705, UniProt accession number Q16531) was PCR-amplified from AddGene plasmid #124213 and inserted into a pACEBac1 vector, which had been modified with a N-terminal His6 affinity tag. […] After loading the supernatant, the column was washed with 10 column volumes (CV) lysis buffer to achieve baseline levels of absorbance at 280 nm wavelength, followed by 3 CV of wash buffer (50 mM Tris pH 8, 200 mM NaCl, 1 mM TCEP, 50 mM Imidazole) and another round of lysis buffer (5 CV). […]

T1 sequence (Q9NYV4 714-1063, stated change not applied): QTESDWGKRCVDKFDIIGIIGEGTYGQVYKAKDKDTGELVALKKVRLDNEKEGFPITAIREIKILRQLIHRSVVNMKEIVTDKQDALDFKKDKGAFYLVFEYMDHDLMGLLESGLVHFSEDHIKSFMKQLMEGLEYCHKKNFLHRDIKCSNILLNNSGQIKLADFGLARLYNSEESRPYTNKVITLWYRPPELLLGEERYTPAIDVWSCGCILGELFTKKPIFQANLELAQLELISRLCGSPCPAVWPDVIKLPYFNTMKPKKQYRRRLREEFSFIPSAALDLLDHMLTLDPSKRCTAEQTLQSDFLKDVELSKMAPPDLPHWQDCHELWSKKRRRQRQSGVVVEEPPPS
T1 sequence (O75909 1-267 partner limits assumed): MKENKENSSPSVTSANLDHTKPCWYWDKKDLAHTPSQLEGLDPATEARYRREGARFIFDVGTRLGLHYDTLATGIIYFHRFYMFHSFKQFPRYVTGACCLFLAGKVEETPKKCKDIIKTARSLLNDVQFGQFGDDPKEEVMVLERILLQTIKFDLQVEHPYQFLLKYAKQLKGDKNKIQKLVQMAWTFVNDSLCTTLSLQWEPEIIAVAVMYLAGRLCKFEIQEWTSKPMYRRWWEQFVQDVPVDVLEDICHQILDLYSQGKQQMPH
T1 sequence (Q16531 with tags, fused parts or gaps DEL396-705): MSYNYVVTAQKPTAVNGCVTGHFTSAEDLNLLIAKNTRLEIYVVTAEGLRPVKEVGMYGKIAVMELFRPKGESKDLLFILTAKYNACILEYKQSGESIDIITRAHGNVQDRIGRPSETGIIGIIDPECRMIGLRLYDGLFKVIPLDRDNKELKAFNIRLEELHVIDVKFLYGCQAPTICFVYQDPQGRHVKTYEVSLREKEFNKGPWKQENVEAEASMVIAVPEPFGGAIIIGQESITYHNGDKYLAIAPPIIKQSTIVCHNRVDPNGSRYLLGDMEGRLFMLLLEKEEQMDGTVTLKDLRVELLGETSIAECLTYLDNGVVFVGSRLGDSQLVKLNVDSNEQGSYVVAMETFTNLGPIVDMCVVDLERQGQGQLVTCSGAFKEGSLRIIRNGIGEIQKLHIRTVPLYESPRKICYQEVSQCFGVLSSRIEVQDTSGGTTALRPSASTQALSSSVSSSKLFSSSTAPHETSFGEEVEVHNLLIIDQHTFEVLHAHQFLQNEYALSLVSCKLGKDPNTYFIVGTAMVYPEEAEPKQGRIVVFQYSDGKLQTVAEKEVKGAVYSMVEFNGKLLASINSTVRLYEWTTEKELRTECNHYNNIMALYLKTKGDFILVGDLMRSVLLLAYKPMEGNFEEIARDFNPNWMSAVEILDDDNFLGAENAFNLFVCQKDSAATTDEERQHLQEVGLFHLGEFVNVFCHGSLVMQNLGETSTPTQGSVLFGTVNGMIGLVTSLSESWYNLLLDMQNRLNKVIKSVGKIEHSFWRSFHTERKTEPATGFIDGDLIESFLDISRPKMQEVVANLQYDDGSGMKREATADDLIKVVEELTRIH

Row | ΔTm (Cdk12/CycK and DDB1ΔB) | SMILES | EC50 (HEK-293T cells) [nM] | EC50 (HEK-293TDDB1-shRNA cells) [nM] | fold change of EC50 (DDB1 shRNA vs WT) (HEK-293TDDB1-shRNA cells; HEK-293T DDB1 shRNA vs WT HEK-293T)
1 | +5.05 °C | Cn1cc(-n2cnc3c(NCc4nc5cc(Cl)c(Cl)cc5[nH]4)nc(N4CCOCC4)nc32)cn1 [SR-4835] | 188 | 2000 | 
2 | +2 °C | CN(C)C/C=C/C(=O)Nc1ccc(C(=O)N2CCC[C@@H](Nc3ncc(Cl)c(-c4c[nH]c5ccccc45)n3)C2)cc1 [THZ531, reference compound] | 128 | 231 | ns
